Test results published in PubChem BioAssay (NCI).
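A five-concentration, 48-hour dose response in 96-well plates underlies each endpoint, interpolated linearly between surrounding concentrations. GI50 is the concentration that inhibits growth by half. At the TGI there is no net growth.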

What was measured:
Experiment in all cases: inhibition of tumour cell growth, NCI panel, 48 h
SNB-75 CNS = system: SNB-75 CNS
K-562 leukemia = system: K-562 leukemia
NCI-H460 lung = system: NCI-H460 lung
NCI-H226 lung = system: NCI-H226 lung
IGROV1 ovarian = system: IGROV1 ovarian
UO-31 renal = system: UO-31 renal
SF-295 CNS = system: SF-295 CNS
KM12 colon = system: KM12 colon
SK-MEL-5 melanoma = system: SK-MEL-5 melanoma
NCI-H23 lung = system: NCI-H23 lung
HCC-2998 colon = system: HCC-2998 colon
EKVX NSCLC = system: EKVX NSCLC
UACC-257 melanoma = system: UACC-257 melanoma
MOLT-4 leukemia = system: MOLT-4 leukemia
U251 CNS = system: U251 CNS
SF-539 CNS = system: SF-539 CNS
OVCAR-4 ovarian = system: OVCAR-4 ovarian
HOP-92 NSCLC = system: HOP-92 NSCLC
OVCAR-3 ovarian = system: OVCAR-3 ovarian
PC-3 prostate = system: PC-3 prostate
HT29 colon = system: HT29 colon
ACHN renal = system: ACHN renal
HCT-15 colon = system: HCT-15 colon
MDA-MB-231 breast = system: MDA-MB-231 breast
MDA-MB-435 = system: MDA-MB-435
OVCAR-5 ovarian = system: OVCAR-5 ovarian
786-0 renal = system: 786-0 renal
HOP-62 NSCLC = system: HOP-62 NSCLC
SW-620 colon = system: SW-620 colon
MCF7 breast = system: MCF7 breast
OVCAR-8 ovarian = system: OVCAR-8 ovarian
HL-60(TB) leukemia = system: HL-60(TB) leukemia
NCI-H522 lung = system: NCI-H522 lung
A549 NSCLC = system: A549 NSCLC
CAKI-1 renal = system: CAKI-1 renal
SN12C renal = system: SN12C renal
M14 melanoma = system: M14 melanoma
MALME-3M melanoma = system: MALME-3M melanoma
DU-145 prostate = system: DU-145 prostate
SF-268 CNS = system: SF-268 CNS
RPMI-8226 leukemia = system: RPMI-8226 leukemia
SNB-19 CNS = system: SNB-19 CNS
SR leukemia = system: SR leukemia
T-47D breast = system: T-47D breast

Cc1cc(N=C2NC(=O)S/C2=C\c2ccc(F)cc2)n[nH]1
GI50 (SNB-75 CNS): 2.12 µM
TGI (SNB-75 CNS): > 100 µM
GI50 (K-562 leukemia): 3.32 µM
TGI (K-562 leukemia): > 100 µM
GI50 (NCI-H460 lung): 3.13 µM
TGI (NCI-H460 lung): > 100 µM
GI50 (NCI-H226 lung): 2.9 µM
TGI (NCI-H226 lung): > 100 µM
GI50 (IGROV1 ovarian): 2.59 µM
TGI (IGROV1 ovarian): > 100 µM
GI50 (UO-31 renal): 2.33 µM
TGI (UO-31 renal): > 100 µM
GI50 (SF-295 CNS): 2.79 µM
TGI (SF-295 CNS): > 100 µM
GI50 (KM12 colon): 4.13 µM
TGI (KM12 colon): > 100 µM
GI50 (SK-MEL-5 melanoma): 3.16 µM
TGI (SK-MEL-5 melanoma): > 100 µM
GI50 (NCI-H23 lung): 3.63 µM
TGI (NCI-H23 lung): > 100 µM
GI50 (HCC-2998 colon): 3.67 µM
TGI (HCC-2998 colon): > 100 µM
GI50 (EKVX NSCLC): 2.69 µM
TGI (EKVX NSCLC): > 100 µM
GI50 (UACC-257 melanoma): 2.82 µM
TGI (UACC-257 melanoma): > 100 µM
GI50 (MOLT-4 leukemia): 2.93 µM
TGI (MOLT-4 leukemia): > 100 µM
GI50 (U251 CNS): 2.35 µM
TGI (U251 CNS): > 100 µM
GI50 (SF-539 CNS): 2.84 µM
TGI (SF-539 CNS): > 100 µM
GI50 (OVCAR-4 ovarian): 3.85 µM
TGI (OVCAR-4 ovarian): > 100 µM
GI50 (HOP-92 NSCLC): 2.62 µM
TGI (HOP-92 NSCLC): > 100 µM
GI50 (OVCAR-3 ovarian): 3.13 µM
TGI (OVCAR-3 ovarian): > 100 µM
GI50 (PC-3 prostate): 3.37 µM
TGI (PC-3 prostate): > 100 µM
GI50 (HT29 colon): 4.09 µM
TGI (HT29 colon): > 100 µM
GI50 (ACHN renal): 3.36 µM
TGI (ACHN renal): > 100 µM
GI50 (HCT-15 colon): 2.47 µM
TGI (HCT-15 colon): > 100 µM
GI50 (MDA-MB-231 breast): 2.95 µM
TGI (MDA-MB-231 breast): > 100 µM
GI50 (MDA-MB-435): 3 µM
TGI (MDA-MB-435): > 100 µM
GI50 (OVCAR-5 ovarian): 3.65 µM
TGI (OVCAR-5 ovarian): > 100 µM
GI50 (786-0 renal): 3.01 µM
TGI (786-0 renal): > 100 µM
GI50 (HOP-62 NSCLC): 2.59 µM
TGI (HOP-62 NSCLC): > 100 µM
GI50 (SW-620 colon): 3.92 µM
TGI (SW-620 colon): > 100 µM
GI50 (MCF7 breast): 2.36 µM
TGI (MCF7 breast): > 100 µM
GI50 (OVCAR-8 ovarian): 2.76 µM
TGI (OVCAR-8 ovarian): > 100 µM
GI50 (HL-60(TB) leukemia): 3.3 µM
TGI (HL-60(TB) leukemia): > 100 µM
GI50 (NCI-H522 lung): 2.57 µM
TGI (NCI-H522 lung): > 100 µM
GI50 (A549 NSCLC): 3.07 µM
TGI (A549 NSCLC): > 100 µM
GI50 (CAKI-1 renal): 3.81 µM
TGI (CAKI-1 renal): > 100 µM
GI50 (SN12C renal): 3.81 µM
TGI (SN12C renal): > 100 µM
GI50 (M14 melanoma): 2.63 µM
TGI (M14 melanoma): > 100 µM
GI50 (MALME-3M melanoma): 3.47 µM
TGI (MALME-3M melanoma): > 100 µM
GI50 (DU-145 prostate): 5.33 µM
TGI (DU-145 prostate): > 100 µM
GI50 (SF-268 CNS): 4.48 µM
TGI (SF-268 CNS): > 100 µM
GI50 (RPMI-8226 leukemia): 2.27 µM
TGI (RPMI-8226 leukemia): 6.34 µM
GI50 (SNB-19 CNS): 3.2 µM
TGI (SNB-19 CNS): > 100 µM
GI50 (SR leukemia): 2.35 µM
TGI (SR leukemia): > 100 µM
GI50 (T-47D breast): 2.58 µM
TGI (T-47D breast): > 100 µM
